# Key:
# GAP-43 mRNA = assay: RT-qPCR of GAP-43 mRNA in primary cultured adult DRG neurons; format: cell-based, rat; settings: 240 nM, 24 h, vs vehicle
# TLR4 = assay: Immunoblot of injured sciatic nerve two days after PNL, TLR4; format: in vivo, mouse; settings: 2 μg/g s.c.
# Description: Neuropathic pain model: Mice (n=30) were randomly assigned to two different groups: SP163M (2 μg/g; s.c. 100 μl) and vehicle (H20 s.c. 100 μl). Mice were treated 1 h prior to partial nerve ligation (PNL) and then daily at least 1 h prior to behavior testing for 2 weeks. PNL studies were performed as previously disclosed^59 and adapted for mice.^57 Male mice were anesthetized with 3% isoflurane (Vetone, USA) in 1.5 L/min oxygen (Praxair, USA) and maintained with 2.5% isoflurane. An incision was made along the long axis of the femur. […] Filaments were presented in a consecutive fashion either ascending or descending using the up-down method as previously disclosed^60 and modified for mice.^57,61 The filament that caused paw withdrawal 50% of the time (the 50% PWT) was determined. […]
# Immunoblots of sciatic nerve: Sciatic nerves were harvested 2 days after PNL to identify early molecular and cellular changes. […] Nerves were lysed in RIPA buffer and equal amounts of protein (20 μg) from nerves lysates, as determined by BCA Protein Assay (Bio-Rad, Hercules, CA, USA), were subjected to 10% SDS-PAGE and electro-transferred to nitrocellulose membranes. […] Primary antibodies were detected with HRP-conjugated species-specific secondary antibodies (Cell Signaling Technology, Danvers, MA, USA; cat #7076S or 4S; 1:5000). […]
# [1] = tested on: MC903 induced atopic dermatitis and pruritis in mice; assay: MC903 (calcipotriol) induced AD-like inflammatory skin model, topical treatment: dermatitis score, ear volume, scratching; format: in vivo, mouse
# Description: SP16 (in 70% ethanol) was applied topically to the ears on the days of the MC903 applications (MC903+SP16). Drug vehicle (70% EtOH) was applied to control animals (MC903) and normal control animals (NC) received EtOH in place of MC903. In-life parameters: Dermatitis score (FIG. 16A) and ear volume (FIG. 16B) measured on days 0, 3, 7, 9, 11 and 14. […] Clinical Dermatitis Score (score 0-4 for each parameter)-erythema, scale/dryness, edema, excoriation/erosion (total score 0-16).
# (§1) Mice were treated with SP16 in 70% EtOH (MC903+SP16) or drug vehicle (MC903). Normal control (NC) mice were treated with EtOH only. Ears were measured for PAR2 protein expression through western blot analysis (quantitative analysis after normalization to beta-actin shown) (n=3-5). TSLP was measured in both the ears and serum by ELISA (N=3-5). Scratching was assessed over a 3 minute period after a 5-minute acclimatization period and the number of scratches are shown (n=3). IL-4 was measured in ear lysate via ELISA (N=3-5).
# TSLP = assay: MC903 AD model, TSLP in ears and serum by ELISA; format: in vivo, mouse; settings: topical, vs MC903 treated mice
# Description: as §1
# CCL26 = CCL26 release by esophageal epithelial cells (EPC2); format: cell-based, human
# Description: FIG. 12A: Poly I:C-induced TSLP production by SPINK7 knockout EPC2 cells (Human esophageal epithelial cells). SPINK7 KO cells and control cells were plated in high calcium and high density, for 48 hours before being treated with SP16 or 7G and Poly I:C (5 μg/ml, or untreated) for 8 hours. TSLP production in the supernatant was measured by ELISA. FIG. 12B: primary esophageal epithelial cells (EPC2) were treated with SP16 and then stimulated with IL-13, a TH2 response mediated cytokine, to induce CCL26.
# SP16 reduces several key cytokines involved in allergic responses. Upon knockout of SPINK7, esophageal epithelial cells release exacerbated levels of TSLP. TSLP is a key mediator of immune cell responses upon activation to an insult such as allergens.
# CCL24 = assay: OVA-challenge allergic inflammation model, CCL24 in BALF by ELISA; format: in vivo, mouse; settings: OVA-challenge in sensitized mice, treated during challenge phase, vs vehicle
# Description: (§2) Mice were subjected to the OVA-challenge allergic inflammation model and treated with vehicle or SP16 during the challenge phase. The bronchoalveolar lavage fluid (BALF) was analyzed for cytokines via ELISA.
# (§3) The ova-induced model of allergic inflammation is a widely used model of eosinophilic driven allergic diseases.
# IL-2 = assay: OVA-challenge allergic inflammation model, IL-2 in BALF by ELISA; format: in vivo, mouse; settings: OVA-challenge in sensitized mice, treated during challenge phase, vs vehicle
# Description: as §2, §3
sequence,measurement,setting,value
VKFNKPFVFLMIEQNTK (SP16 peptide core sequence including the LRP1 binding site; listed as Homo sapiens),GAP-43 mRNA,GAP-43 mRNA,increased GAP-43 mRNA compared to vehicle-treated neurons
same,TLR4 expression in injured sciatic nerve (immunoblots),TLR4,robustly down regulated TLR4 expression
same,"disease (dermatitis score, ear volume)","[1]; topical solution (1%) in 70% ethanol, 14-day period, vs vehicle-treated mice",significant improvement in disease vs. vehicle-treated mice
same,pruritis (number of scratches over 3 minutes),"[1]; topical, vs vehicle (MC903) treated mice",significantly reduces pruritis
same,local (ear) TSLP,TSLP,significant reduction in systemic (serum) and local (ear) TSLP
same,systemic (serum) TSLP,TSLP,significant reduction in systemic (serum) and local (ear) TSLP
same,CCL26 release (text: Poly 1:C mediated),CCL26; primary SPINK7 knockout esophageal cells,effective in significantly reducing Poly 1:C mediated TSLP and CCL26 release
same,CCL26 release induced by IL-13,"CCL26; primary esophageal epithelial cells (EPC2), SP16 then IL-13",significantly reduced CCL26 release dose dependently
same,CCL24 in BALF,CCL24,significantly reduces CCL24
same,IL-2 in BALF,IL-2,significantly reduces IL-2
